Results as given in US6939854B2, “Peptide inhibitors of hepatitis C virus NS3 protease” (priority 2000, dated 2005).

Target: T1, Human neutrophil elastase (Homo sapiens, UniProt P08246)
T1 construct: purchased ART Biochemicals, Athens, Ga
T1 sequence (P08246 30-267): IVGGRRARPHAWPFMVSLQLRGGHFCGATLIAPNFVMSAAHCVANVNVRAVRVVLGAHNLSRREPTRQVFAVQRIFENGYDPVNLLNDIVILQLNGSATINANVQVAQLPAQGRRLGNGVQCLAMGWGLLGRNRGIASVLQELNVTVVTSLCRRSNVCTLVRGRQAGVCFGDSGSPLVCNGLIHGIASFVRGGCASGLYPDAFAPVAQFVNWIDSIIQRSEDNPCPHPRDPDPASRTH
Test: Inhibitory selectivity of HCV NS3 protease over elastase (human neutrophil elastase assay)
Assay type: biochemical
Settings: IC50 (elastase) divided by IC50 (HCV NS3)
Procedure: Selectivity of HCV NS3 over elastase can be calculated by dividing IC50 (elastase) over IC50 (HCV NS3). Similarily, selectivity of HCV NS3 over chymotrypsin can be calculated by dividing IC50 (chymotrypsin) over IC50 (HCV NS3).
Human neutrophil elastase was obtained from ART Biochemicals, Athens, Ga. Stock solutions of lyophilized enzyme (1 mg/ml) were prepared in PBS buffer containing 10% glycerol and stored at −20 ° C. Human neutrophil elastase was assayed with the Meo-Suc-Ala-Ala-Pro-Val-p-nitroanilide (Sigma) as a substrate (C. Kettner and A. Shenvi, 1984). The hydrolysis of substrate was monitored at 405 nm on a Hewlett-Packard spectrophotometer.

Row | Compound | Selectivity of HCV NS3 vs. elastase
1 | CC(C)[C@H](NC(=O)c1cnccn1)C(=O)N[C@H](C(=O)N1C[C@H](OCc2ccccc2)C[C@H]1C(=O)N[C@@H](CCc1ccc(C(F)(F)F)cc1)B1OC2CC3CC(C3(C)C)C2(C)O1)C(C)C (stereo partly drawn) [Example 34, (2-pyrazinecarbonyl)-Val-Val-Hyp(OBzl)-(1R)-1-amino-3-(4-trifluoromethyl)phenylpropylboronic acid (+)-pinanediol ester] | 7
2 | H-Asp-Glu-Val-Val-Pro-(1R)-1-amino-3-(1,1′-biphenyl)-4-ylpropylboronic acid (+)-pinanediol ester [Example 11] | >10
3 | H-Asp-Glu-Val-Val-Pro-(1R)-1-amino-3-(3-methyl)phenylpropylboronic acid (+)-pinanediol ester [Example 9] | >10
4 | H-Asp-Glu-Val-Val-Pro-(1R)-1-amino-3-(4-bromo)phenylpropylboronic acid (+)-pinanediol ester [Example 23] | >10
5 | H-Asp-Glu-Val-Val-Pro-(1R)-1-amino-3-(4-chloro)phenylpropylboronic acid (+)-pinanediol ester [Example 22] | >10
6 | H-Asp-Glu-Val-Val-Pro-(1R)-1-amino-3-(4-cyclohexyl)phenylpropylboronic acid (+)-pinanediol ester [Example 19] | >10
7 | H-Asp-Glu-Val-Val-Pro-(1R)-1-amino-3-(4-fluoro)phenylpropylboronic acid (+)-pinanediol ester [Example 16] | >10
8 | H-Asp-Glu-Val-Val-Pro-(1R)-1-amino-3-(4-hydroxy)phenylpropylboronic acid (+)-pinanediol ester [Example 27] | >10
9 | H-Asp-Glu-Val-Val-Pro-(1R)-1-amino-3-(4-isopropyl)phenylpropylboronic acid (+)-pinanediol ester [Example 18] | >10
10 | H-Asp-Glu-Val-Val-Pro-(1R)-1-amino-3-(4-methoxy)phenylpropylboronic acid (+)-pinanediol ester [Example 21] | >10
11 | H-Asp-Glu-Val-Val-Pro-(1R)-1-amino-3-(4-methyl)phenylpropylboronic acid (+)-pinanediol ester [Example 10] | >10
12 | H-Asp-Glu-Val-Val-Pro-(1R)-1-amino-3-(4-phenoxy)phenylpropylboronic acid (+)-pinanediol ester [Example 17] | >10
13 | H-Asp-Glu-Val-Val-Pro-(1R)-1-amino-3-(4-tert-butyl)phenylpropylboronic acid (+)-pinanediol ester [Example 20] | >10
14 | H-Asp-Glu-Val-Val-Pro-(1R)-1-amino-3-(4-trifluoromethyl)phenylpropylboronic acid (+)-pinanediol ester [Example 14] | >10
15 | H-Asp-Glu-Val-Val-Pro-(1R)-1-amino-3-phenylpropylboronic acid (+)-pinanediol ester [Example 3] | >10
16 | H-Asp-Glu-Val-Val-Pro-(1R)-1-amino-5-methylhexylboronic acid (+)-pinanediol ester [Example 36] | >10
17 | H-Asp-Glu-Val-Val-Pro-(1R)-1-amino-5-phenylpentylboronic acid (+)-pinanediol ester [Example 5] | 9
